Test results: patent US20090068290A1, “BIFEPRUNOX DOSES FOR TREATING SCHIZOPHRENIA” (priority 2006, published 2009)

Legend:
[1] = system: patients with chronic schizophrenia; test: CDSS total score, Clinical Study Four; format: in vivo, human; details: FAS, ANCOVA; for CDSS total, Adjusted Mean Change from Baseline (LS mean): LOCF
Protocol: (§1) METHODOLOGY: This study was a multinational, multicenter, randomized, double-blind, parallel-group, placebo-controlled, fixed-dose study. The study consisted of a 3- to 6-day antipsychotic-free run-in period, after which patients were randomised to 6 months of double-blind treatment with fixed doses of bifeprunox (20 mg/day (BX20) or 30 mg/day (BX30)) or placebo (PBO). Patients allocated to the BX groups were up-titrated from 0.25 mg/day over 7 days (BX20) or 8 days (BX30), and then continued on these doses for the remainder of the study. […] At predetermined time points, blood samples were obtained for drug concentration analysis of BX and its major metabolites (3′- and 4′-sulfate conjugates of BX), and pharmaco-economic assessments were performed.

[2] = system: patients with chronic schizophrenia; test: PANSS general psychopathology subscale score, Clinical Study Four; format: in vivo, human; details: FAS, ANCOVA; for PANSS general psychopathology, Adjusted Mean Change from Baseline (LS mean): LOCF
Protocol: as §1

[3] = Pooled metabolic analysis, 6-month study: lipid profile
From the text: OBJECTIVE: To examine the metabolic effects of bifeprunox in patients with acute and stable schizophrenia.
METHODS: Metabolic data was compiled from one 6-month and four 6-week studies (i.e., a treatment period) of bifeprunox in patients with stable and acute schizophrenia, respectively. In the 6-month study, patients received bifeprunox (n=331) or placebo (PBO) (n=166). […] Metabolic evaluations included body weight, body mass index (BMI), plasma glucose and lipid profiles. Fasting glucose and lipid values were assessed in one 6-week study and in the 6-month study. Triglyceride:HDL ratio (TG:HDL) was calculated as a marker of insulin resistance. No statistical analyses were performed; only descriptive statistics are presented.

[4] = fasting, endpoint, 6-month study, BX total

O=c1[nH]c2cccc(N3CCN(Cc4cccc(-c5ccccc5)c4)CC3)c2o1 [Bifeprunox, 7-[4-([1,1′-biphenyl]-3-ylmethyl)-1-piperazinyl]-2(3H)-benzoxazolone]
CDSS total, Adjusted Mean Change from Baseline (LS mean) ([1]; Month 6, listed as BX20): 0.0
CDSS total, Adjusted Mean Change from Baseline (LS mean) ([1]; Month 6, listed as BX30): 0.1
CDSS total, Adjusted Mean Change from Baseline (LS mean) ([1]; Week 6, listed as BX20): −0.2
CDSS total, Adjusted Mean Change from Baseline (LS mean) ([1]; Week 6, listed as BX30): −0.1
mean CDSS total scores versus PBO, per-visit LOCF analysis ([1]; either BX group): no statistically significant differences
PANSS general psychopathology subscale scores versus PBO, per-visit LOCF analysis ([2]; BX20 and BX30): statistically significantly superior to PBO from Week 9 onwards
PANSS general psychopathology, Adjusted Mean Change from Baseline (LS mean) ([2]; Month 6, listed as BX20): 0.4
PANSS general psychopathology, Adjusted Mean Change from Baseline (LS mean) ([2]; Month 6, listed as BX30): 0.8
PANSS general psychopathology, Adjusted Mean Change from Baseline (LS mean) ([2]; Week 6, listed as BX20): −1.2
PANSS general psychopathology, Adjusted Mean Change from Baseline (LS mean) ([2]; Week 6, listed as BX30): −0.4
change in total cholesterol (TC) ([3]; 6-month study): -0.31 mmol/L
decrease in TG:HDL ([3]; 6-month study): 23%
decrease in total cholesterol (TC) ([3]; 6-month study): 6%
total cholesterol and triglycerides (in words) ([3]; 6-month study): reduced to a greater extent with bifeprunox than with placebo
Fasting HDL, Mean change (SD) [3, 4]: 2.9 (9.3) mg/dL
Fasting HDL, Percentage mean change [3, 4]: 6.2%
Total cholesterol, Mean change (SD) [3, 4]: −11.6 (29.7) mg/dL
Total cholesterol, Percentage mean change [3, 4]: −6.4%
Triglyceride:HDL ratio, Mean change (SD) [3, 4]: −0.4 (1.0)
Triglyceride:HDL ratio, Percentage mean change [3, 4]: −23.0%
Triglycerides, Mean change (SD) [3, 4]: −28.0 (76.0) mg/dL
Triglycerides, Percentage mean change [3, 4]: −19.4%
Fasting LDL, Mean change (SD) ([3]; in vivo): −9.7 (27.6) mg/dL
Fasting LDL, Percentage mean change ([3]; in vivo): −8.6%
change in TG values ([3]; over 6-months): -0.32 mmol/L
decrease in TG values ([3]; over 6-months): 19%
